According to patent publication US20160175229A1, “MICROPARTICLES WITH CYCLODEXTRINS HAVING A DUAL LEVEL OF ENCAPSULATION” (LCA DERMATECH, priority 2013, published 2016):

Test: In vitro dermal absorption of hesperidin on Franz cells with skin explants (1st experimental part)
Assay type: in vitro ADME
Conditions: hesperidin 0.5 weight % of sample
Description: The diffusion of a first active ingredient, hesperidin, in the different layers of the skin has been assessed based on the manner by which it has been applied on the skin, namely: • 1) in the case where the hesperidin has been encapsulated in microparticles according to the invention, and following Example 1 which has been detailed above, • 2) in the case where the hesperidin has been encapsulated in microparticles of polymers, • 3) in the case where the hesperidin has been provided in a free form, • 4) in the case where the hesperidin has been provided in the form of an inclusion complex with a cyclodextrin.
These 4 preparations have constituted 4 samples of cutaneous application of hesperidin. Hesperidin represented 0.5 weight % of the mass of each of these 4 samples.
Tests on these 4 samples have been carried out in accordance with the Directives: SCCS/1358/10 on date of Jun. 22, 2010 <<Basic criteria for the in vitro assessment of dermal absorption of cosmetic ingredient>>, OECD 28 of 2004. OECD being the abbreviation of <<Organization for Economic Co-operation and Development>> and SCCS being the abbreviation of <<Scientific Committee on Consumer Safety>>.
The material that has been used consisted of Franz cells. Skin explants, with an average surface area of 2.54 cm^2 and with a thickness comprised between 1.1 and 1.35 mm, have been used. […]

Compound: COc1ccc([C@@H]2CC(=O)c3c(O)cc(O[C@@H]4O[C@H](CO[C@@H]5O[C@@H](C)[C@H](O)[C@@H](O)[C@H]5O)[C@@H](O)[C@H](O)[C@H]4O)cc3O2)cc1O [hesperidin in a free form, hesperidin]
- amount of hesperidin cumulated in the dermis during 24 hours: 1.98 μg/cm^2
